Measured values: paper PMC3901259, “Characterisation of the Metabolites of 1,8-Cineole Transferred into Human Milk: Concentrations and Ratio of Enantiomers” (Metabolites, 2013)

Columns and labels:
[1] = Determination of the ratios of enantiomers of chiral metabolites in human milk on chiral GC capillaries; assay type: in vivo
Excerpt: The separation of the chiral metabolites of 1,8-cineole was successfully achieved using different β- or γ-cyclodextrin-based stationary phases (Rt-bDEXsa, Rt-bDEXse, Rt-bDEXsm and Rt-yDEXsa) for gas chromatographic analysis. Table S1, in the supplementary material, lists the usable separation phases and the respective retention indices (determined according to van den Dool and Kratz) for each pair of enantiomers. It was therefore decided to use the following capillaries for the analysis of the human milk samples: Rt-bDEXsm for separation of 2,3-dehydro-, α2,3-epoxy-, 2-oxo-, 3-oxo- and 9-hydroxy-1,8-cineole, and Rt-yDEXsa for separation of α2-hydroxy-, α3-hydroxy- and β2-hydroxy-1,8-cineole, under the GC conditions described in the experimental section.
For GC-MS analyses, an Agilent MSD quadrupole system (GC 7890A with MSD 5975C, Agilent Technologies, Waldbronn, Germany) coupled with a CIS 4C (cooled injection system) and an MPS 2 auto-sampler (Gerstel GmbH & Co. KG, Duisburg, Germany) were used. Data collection and analysis were performed with the MSD ChemStation E.02.00.493 (Agilent Technologies, Inc.) software. Quantification experiments were carried out on DB-FFAP and DB-5 capillaries (30 m length, 0.25 mm inner diameter, 0.25 µm film thickness, Agilent J&W GC Columns, USA), and for monitoring of the ratio of enantiomers the chiral capillaries Rt-bDEXsa, Rt-bDEXse, Rt-bDEXsm and Rt-yDEXsa (30 m length, 0.32 mm inner diameter, 0.25 µm film thickness, Restek GmbH, Bad Homburg, Germany) were utilised. Pre-columns of uncoated, deactivated fused silica (0.53 mm inner diameter, 0.5 to 3.5 m length) were used to ensure that no potentially present low-volatile residues could contaminate the analytical capillaries. The temperature programme of the column oven was as follows: 40 °C for 2 min, 4 °C/min up to 170 °C, 40 °C/min up to 230 °C (Rt-DEX capillaries), 240 °C (DB-FFAP) and 250 °C (DB-5), respectively, and hold time at end temperature of 5 to 10 min. As carrier gas, helium was used at a flow rate of 1.3 mL/min (velocity 41.1 cm/s). Injection of 1 or 2 µL was performed by the auto-sampler.
For the separation of the pairs of enantiomers of the chiral metabolites of 1,8-cineole, four different capillaries (Rt-bDEXsa, Rt-bDEXse, Rt-bDEXsm, and Rt-yDEXsa) were evaluated for optimisation of the peak-to-peak resolution of the enantiomers by injecting a mixture of all the metabolites in a dichloromethane solution and by varying the heating rate. Besides the separation of each pair of enantiomers from each other, it was also important to confirm that no other metabolite coeluted with any one of the enantiomers, because the milk samples would most probably contain all metabolites. Moreover, the separation conditions for the mixture of reference substances were also tested on some human milk sample extracts and modified accordingly, where necessary, to avoid coelution with interfering matrix compounds.
For calculation of the ratio of enantiomers (that is, the relative abundance of each enantiomer to the not separated mixture of enantiomers), the peak area of each enantiomer was divided by the sum of the peak areas of both enantiomers and multiplied by 100. With the known concentrations of the chiral metabolites in each milk sample, the absolute concentration of each single enantiomer was also calculated by multiplying the concentration with the respective percentage.

[2] = Quantification of 1,8-cineole metabolites in human milk (SAFE, GC-MS, internal standard and matrix calibration) after oral intake of 100 mg 1,8-cineole; assay type: in vivo; details: for Absolute concentration in human milk: single determination
Excerpt: Human milk samples were provided voluntarily by breastfeeding mothers after intake of the non-prescription pharmaceutical Soledum® (Klosterfrau Healthcare Group, Cologne, Germany). Before the beginning of the study, the participants were informed verbally, as well as in written form, about the study procedure and purpose and they were told that withdrawing from the study was possible at any time without giving any reason. All volunteers gave written consent to the analysis of their milk samples and anonymous publication of the resulting data. The Ethical Committee of the Medical Faculty, University Erlangen-Nuremberg, approved the experimental procedures. Each participant was handed a copy of the Soldeum® package instructions and was advised to read it before capsule intake. They were also advised to withdraw from the study if any negative reactions such as medication allergies or interactions with other drugs they were taking were to be expected. Additionally, the volunteers were informed verbally about potential effects of the pharmaceutical preparation on breastfeeding, i.e. the risk of an altered milk flavour and rejection of the milk by the nursling. Accordingly, if this would happen, the mothers were recommended to feed their babies with stored human milk or formula milk products.
The milk donors were between the ages of 29 and 40 years (mean 34 years). During their participation in the study, their breast milk production had to be normal and in excess of their infants' needs, with no breast infections and no overall medical complaints present. Five participants were primiparous, three were multiparous and the breast milk samples were from 19 weeks to 19 months postpartum. For sampling, either electrical or mechanical breast pumps or manual expression techniques were applied, resulting in sample volumes between 10 and 100 mL. The samples were immediately subjected to sample preparation after a maximum storage time of five hours at 7 °C or were stored in a freezer at −20 °C for up to five days.
The participating volunteers were asked to ingest one Soledum® capsule, containing 100 mg 1,8-cineole, and to wait until they themselves or another person began to notice the eucalyptus-like odour on their breath. […] The donors were instructed to keep notes on the dates of capsule intake, first eucalyptus-like odour on their breath and exact sampling time. Unfortunately it was difficult for some mothers to detect the smell on their breath so they expressed the samples after some time without having noticed the smell, or reported having been unsure about the smell. […] Some of the donors repeated the whole experiment and some expressed more than one sample after the capsule intake, resulting in 14 samples in total, from 8 different mothers.
Extracts containing the volatile fraction of the human milk samples were prepared by Solvent Assisted Flavour Evaporation (SAFE) after addition of deuterated 1,8-cineole as internal standard (solution in dichloromethane), followed by 10 min of stirring, then another addition of dichloromethane (50% v/v), and 30 min of stirring. The resulting stable phase was distilled in the SAFE-apparatus at 50 °C and approximately 1x10^−4 mbar. The volatile fraction of the samples was frozen with liquid nitrogen. After thawing, it consisted of two phases, formed by the dichloromethane and by the water out of the milk. The water phase was extracted three times with dichloromethane, and the solvent phases were combined and dried over anhydrous Na2SO4. Finally the sample extracts were concentrated by microdistillation according to Bemelmans at 50 °C to a total volume of 50 to 200 μL.
For GC-MS analyses, an Agilent MSD quadrupole system (GC 7890A with MSD 5975C, Agilent Technologies, Waldbronn, Germany) coupled with a CIS 4C (cooled injection system) and an MPS 2 auto-sampler (Gerstel GmbH & Co. KG, Duisburg, Germany) were used. […]

[3] = design: method as in PMID 20425757; details: one volunteer, sage tea, overall intake 1.02 mg 1,8-cineole; cited from earlier work
[4] = sample A-1b (odour yes), oral 100 mg 1,8-cineole, values given with (<x) are approximations
[5] = sample B-1 (odour yes), oral 100 mg 1,8-cineole, values given with (<x) are approximations
[6] = sample B-2b (odour yes), oral 100 mg 1,8-cineole, values given with (<x) are approximations
[7] = sample B-2c (no odour), oral 100 mg 1,8-cineole
[8] = sample C (no odour; very weak odour not caused by 1,8-cineole), oral 100 mg 1,8-cineole, values given with (<x) are approximations
[9] = sample D-1 (no odour), oral 100 mg 1,8-cineole, values given with (<x) are approximations
[10] = sample D-2 (odour yes), oral 100 mg 1,8-cineole, values given with (<x) are approximations
[11] = sample E-2 (odour yes), oral 100 mg 1,8-cineole, values given with (<x) are approximations
[12] = sample F (no odour), parent ingested two capsules, values given with (<x) are approximations
[13] = sample G (odour yes), oral 100 mg 1,8-cineole, values given with (<x) are approximations
[14] = sample H (odour yes), oral 100 mg 1,8-cineole, values given with (<x) are approximations

Structure (SMILES): CC12CCC(C(=O)C1)C(C)(C)O2 (centres unmarked) [3-oxo-1,8-cineole]
- Enantiomeric ratio in human milk [1]: nearly enantiomerically pure
- Percentage E1, range as described for boxplot ([1]; human milk samples, Figure 5): under 10%
- Estimated maximum level in human milk (concentration calculated with the last calibration point, in parentheses) ([2]; sample A-1a (no odour)): < 1.57 µg/kg
- Absolute concentration in human milk ([2]; sample A-1a (no odour), oral 100 mg 1,8-cineole, values given with (<x) lie beyond calibration range, approximation): 0.01 µg/kg
- Absolute concentration in human milk [2, 4]: 1.80 µg/kg
- Absolute concentration in human milk [2, 5]: 3.32 µg/kg
- Estimated maximum level in human milk (concentration calculated with the last calibration point, in parentheses) ([2]; sample B-2b (odour yes)): < 2.37 µg/kg
- Absolute concentration in human milk [2, 6]: 1.47 µg/kg
- Absolute concentration in human milk [2, 7]: 0.68 µg/kg
- Estimated maximum level in human milk (concentration calculated with the last calibration point, in parentheses) ([2]; sample C (no odour)): < 1.10 µg/kg
- Absolute concentration in human milk [2, 8]: 0.14 µg/kg
- Estimated maximum level in human milk (concentration calculated with the last calibration point, in parentheses) ([2]; sample D-1 (no odour)): < 1.22 µg/kg
- Absolute concentration in human milk [2, 9]: 0.77 µg/kg
- Estimated maximum level in human milk (concentration calculated with the last calibration point, in parentheses) ([2]; sample D-2 (odour yes)): < 2.20 µg/kg
- Absolute concentration in human milk [2, 10]: 2.12 µg/kg
- Absolute concentration in human milk [2, 11]: 2.41 µg/kg
- Absolute concentration in human milk [2, 12]: 0.07 µg/kg
- Estimated maximum level in human milk (concentration calculated with the last calibration point, in parentheses) ([2]; sample F (no odour), two capsules): < 3.00 µg/kg
- Estimated maximum level in human milk (concentration calculated with the last calibration point, in parentheses) ([2]; sample G (odour yes)): < 4.02 µg/kg
- Absolute concentration in human milk [2, 13]: 3.38 µg/kg
- Absolute concentration in human milk [2, 14]: 3.85 µg/kg

Structure (SMILES): CC12CCC(O)(CC1)C(C)(C)O2 [4-hydroxy-1,8-cineole]
- Absolute concentration in human milk [2, 4]: 5.96 µg/kg
- Absolute concentration in human milk [2, 5]: 6.35 µg/kg
- Absolute concentration in human milk [2, 6]: 5.62 µg/kg
- Absolute concentration in human milk [2, 7]: 2.32 µg/kg
- Absolute concentration in human milk [2, 9]: 2.24 µg/kg
- Absolute concentration in human milk [2, 10]: 7.13 µg/kg
- Absolute concentration in human milk [2, 11]: 8.92 µg/kg
- Absolute concentration in human milk [2, 12]: 3.62 µg/kg
- Absolute concentration in human milk [2, 13]: 3.39 µg/kg
- Absolute concentration in human milk [2, 14]: 5.66 µg/kg

Structure (SMILES): CC1(C)OC2(CO)CCC1CC2 [7-hydroxy-1,8-cineole]
- Absolute concentration in human milk [2, 4]: 0.56 µg/kg
- Absolute concentration in human milk [2, 5]: 1.14 µg/kg
- Absolute concentration in human milk ([2]; sample B-2a (no odour), oral 100 mg 1,8-cineole): 0.21 µg/kg
- Absolute concentration in human milk [2, 6]: 4.42 µg/kg
- Absolute concentration in human milk [2, 7]: 0.18 µg/kg
- Absolute concentration in human milk [2, 10]: 0.62 µg/kg
- Absolute concentration in human milk [2, 11]: 5.19 µg/kg
- Estimated maximum level in human milk (concentration calculated with the last calibration point, in parentheses) ([2]; sample G (odour yes)): < 1.06 µg/kg
- Absolute concentration in human milk [2, 13]: 0.84 µg/kg
- Absolute concentration in human milk [2, 14]: 1.87 µg/kg
- Concentration in plasma [3]: below the limit of quantitation

Structure (SMILES): CC1(C)OC2(C)CCC1CC2O (stereo not drawn) [b2-hydroxy-1,8-cineole, β2-hydroxy-1,8-cineole]
- Absolute concentration in human milk [2, 4]: 6.00 µg/kg
- Absolute concentration in human milk [2, 5]: 6.72 µg/kg
- Absolute concentration in human milk [2, 6]: 5.82 µg/kg
- Absolute concentration in human milk [2, 7]: 1.71 µg/kg
- Estimated maximum level in human milk (concentration calculated with the last calibration point, in parentheses) ([2]; sample C (no odour)): < 0.96 µg/kg
- Absolute concentration in human milk [2, 8]: 0.33 µg/kg
- Absolute concentration in human milk [2, 9]: 1.42 µg/kg
- Absolute concentration in human milk [2, 10]: 7.35 µg/kg
- Absolute concentration in human milk [2, 11]: 11.44 µg/kg
- Absolute concentration in human milk [2, 13]: 3.80 µg/kg
- Absolute concentration in human milk [2, 14]: 7.90 µg/kg
